Measured values: patent publication US4096173A, “Chlorinated 1-aminoindane N-methyl transferase inhibitors” (Eli Lilly and Company, priority 1977, dated 1978)
Structures can show the parent of a compound that is named as a salt. Where two headings read alike, the source gives them in different places.

How the values were obtained:
[1] = tested on: catechol amine uptake; conditions: comparison stated in the literature; cited from earlier work
[2] = target: T1, NMT from rabbit adrenals (norephineprine N-methyl transferase, PNMT) (Oryctolagus cuniculus, UniProt G1TT82); assay: In vitro inhibition of N-methyl transferase (NMT) from rabbit adrenals; type: biochemical
T1 construct: NMT from rabbit adrenals; from tissue; host or cells: rabbit adrenals
T1 sequence (G1TT82 1-286): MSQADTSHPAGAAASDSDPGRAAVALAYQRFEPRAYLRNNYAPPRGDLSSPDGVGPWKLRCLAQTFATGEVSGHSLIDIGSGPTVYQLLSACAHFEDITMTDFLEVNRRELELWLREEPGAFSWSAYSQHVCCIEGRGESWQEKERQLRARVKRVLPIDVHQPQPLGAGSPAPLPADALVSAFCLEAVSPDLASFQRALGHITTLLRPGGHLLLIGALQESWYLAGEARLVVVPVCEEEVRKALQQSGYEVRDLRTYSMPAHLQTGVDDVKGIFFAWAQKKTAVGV
Source text: The compounds of this invention, either in the form of the free base, or as a pharmaceutically-acceptable acid addition salt thereof, are enzyme inhibitors. In particular, as previously stated, they are inhibitors of norephineprine N-methyl transferase [PNMT or phenethanolamine N-methyl transferase--see Axelod, J. Bio, Chem., 237, 1657 (1962)]. Compounds which inhibit the conversion of norephineprine to […], are capable of lowering a high […]-norephineprine ratio in mammals, a physiological condition frequently associated with essential hypertension. The compounds of this invention are thus capable of ameliorating the […]-norephineprine imbalance in essential hypertension, an important aspect of the treatment of this disease state. The effectiveness of the compounds as N-methyl transferase inhibitors has been measured in vitro using NMT from rabbit adrenals. […] The negative reciprocal logarhithm (pI50) of this number was also calculated as a useful index. Table 1, which follows, summarizes the information thus obtained; i.e., the determination of enzyme inhibition activity for the compounds of this invention.

[3] = read-out: pI50 (negative reciprocal logarhithm of the 50 percent inhibitory concentration) (converted)
[4] = series of decreasing inhibitor concentrations from 1 × 10^-4 M, read-out: 50 Inhibitory Concentration (concentration at which 50 percent inhibition of NMT is obtained)

Which “inhibition of catechol amine uptake, compared with 1-aminoindane” value [1] does the source give for `NC1Cc2ccccc2C1` [2-aminoindane] here?
Its value is “better inhibitor of catechol amine uptake than 1-aminoindane”.

What does the source list for `NC1CCc2c1ccc(Cl)c2Cl` (stereo not drawn) [4,5-dichloro-1-aminoindane]?
IC50 [2, 3]: 200 nM; IC50 [2, 4]: 200 nM

For `NC1CCc2c(Cl)cccc21` (stereo not drawn) [4-Chloro-1-aminoindane hydrochloride, 4-chloro-1-aminoindane hydrochloride], which IC50 [2, 3] is on record?
The IC50 was 759 nM.

What about the IC50 [2, 4] of the same compound?
Its IC50 is 757 nM.

With `NC1CCc2cc(Cl)c(Cl)cc21` (stereo not drawn) [5,6-dichloro-1-aminoindane maleate] as the compound, how does the IC50 [2, 3] read?
Its IC50 is 4680 nM.

What about the IC50 [2, 4] of the same compound?
The IC50 was 2950 nM.

For `NC1CCc2ccc(Cl)c(Cl)c21` (stereo not drawn) [6,7-dichloro-1-aminoindane], which IC50 [2, 3] is on record?
Its IC50 is 6030 nM.

And the IC50 [2, 4]?
The IC50 was 5370 nM.
